# Experimental data reported in the supplement of paper PMC6045584.
# ± gives the standard deviation of the averaged measurements.
# Assays:
# [1] = compound: Cc1cn(-c2cc(NC(=O)c3ccc(C)c(Nc4nccc(-c5cccnc5)n4)c3)cc(C(F)(F)F)c2)cn1 [NILOTINIB]; assay: surviving fraction relative to DMSO-only wells; higher = less growth inhibition; conditions: exposure time: 5 days
# In short: (§1)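 Viability values are CellTiter-Glo luminescence readings, given as surviving fraction against the median of DMSO-only wells. The readings were taken after 10 minutes at room temperature, following five days of continuous exposure to inhibitors at 0.5, 1, 5, 10, 50, 100, 500 and 1000 nM that began 24 hours after log-phase tumour cell lines were seeded at 250–500 cells per well in 384-well plates. Every line was screened three times and kept only if replicate Pearson r >0.7 and median Z' >0.3.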
# [2] = compound: COc1ccc(-c2cc3c(C)nc(N)nc3n([C@H]3CC[C@H](OCCO)CC3)c2=O)cn1; assay: as above; conditions: exposure time: 5 days
# In short: as §1
Test System,surviving fraction ([1]; 0.5 nM),surviving fraction ([1]; 1 nM),surviving fraction ([1]; 5 nM),surviving fraction ([1]; 10 nM),surviving fraction ([1]; 50 nM),surviving fraction ([1]; 100 nM),surviving fraction ([1]; 500 nM),surviving fraction ([1]; 1000 nM),surviving fraction ([2]; 0.5 nM),surviving fraction ([2]; 1 nM),surviving fraction ([2]; 5 nM),surviving fraction ([2]; 10 nM),surviving fraction ([2]; 50 nM),surviving fraction ([2]; 100 nM),surviving fraction ([2]; 500 nM),surviving fraction ([2]; 1000 nM)
HS57T BREAST,1.02 ± 0.12,1.05 ± 0.04,1.05 ± 0.066,1.06 ± 0.015,0.99 ± 0.038,1.08 ± 0.11,0.983 ± 0.03,0.967 ± 0.064,0.946 ± 0.059,1.01 ± 0.07,0.959 ± 0.026,0.939 ± 0.033,0.6 ± 0.023,0.429 ± 0.034,0.148 ± 0.004,0.117 ± 0.0076
G292 BONE,1.04 ± 0.042,1 ± 0.044,1.08 ± 0.033,1.06 ± 0.048,1.08 ± 0.031,1.1 ± 0.023,1.02 ± 0.013,0.956 ± 0.023,0.951 ± 0.026,0.971 ± 0.037,0.853 ± 0.042,0.78 ± 0.011,0.422 ± 0.027,0.305 ± 0.013,0.124 ± 0.003,0.0955 ± 0.001
CCK81 LARGE INTESTINE,0.78 ± 0.088,0.839 ± 0.07,0.759 ± 0.055,0.737 ± 0.11,0.931 ± 0.04,0.877 ± 0.046,0.702 ± 0.1,0.616 ± 0.023,–,–,–,–,–,–,–,–
HMLE3 BREAST,1.11 ± 0.018,1.07 ± 0.11,1.19 ± 0.1,1.18 ± 0.15,1.25 ± 0.026,1.26 ± 0.068,1.27 ± 0.15,1.23 ± 0.18,0.914 ± 0.04,0.918 ± 0.061,0.858 ± 0.12,0.83 ± 0.035,0.611 ± 0.043,0.446 ± 0.024,0.121 ± 0.01,0.0777 ± 0.0064
HMT3552 BREAST,1.01 ± 0.031,0.968 ± 0.018,1.04 ± 0.021,1.02 ± 0.018,1.09 ± 0.11,1.07 ± 0.11,1.12 ± 0.12,1.1 ± 0.069,0.941,0.913,0.883,0.813,0.535,0.279,0.09,0.077
HCC70 BREAST,1.07 ± 0.049,1.13 ± 0.036,1.12 ± 0.02,1.09 ± 0.13,1.17 ± 0.052,1.33 ± 0.072,1.34 ± 0.079,1.31 ± 0.04,1.01 ± 0.091,1.02 ± 0.092,1.06 ± 0.097,0.98 ± 0.026,0.623 ± 0.051,0.346 ± 0.011,0.111 ± 0.036,0.056 ± 0.0061
HS578T BREAST,0.935 ± 0.21,1.06 ± 0.049,0.932 ± 0.16,0.796 ± 0.052,0.766 ± 0.084,0.841 ± 0.1,0.848 ± 0.091,0.669 ± 0.058,0.864 ± 0.19,0.946 ± 0.1,0.811 ± 0.047,0.759 ± 0.12,0.547 ± 0.048,0.403 ± 0.028,0.17 ± 0.008,0.111 ± 0.004
HCC38 BREAST,0.988 ± 0.28,0.786 ± 0.015,1.01 ± 0.16,0.818 ± 0.15,0.742 ± 0.2,0.758 ± 0.039,0.823 ± 0.24,0.824 ± 0.16,0.974 ± 0.14,1.13 ± 0.17,1.21 ± 0.02,1.08 ± 0.069,1.14 ± 0.14,1.01 ± 0.34,0.409 ± 0.083,0.223 ± 0.046
